Experimental data as given in patent publication US5393761A, “3-arylindole compounds” (H. Lundbeck A/S, priority 1990, dated 1995).
Where a name gives a salt, the structure may show the parent alone.

Assays:
[1] = biological target: dopamine D-2 receptors in rat corpus striatum (Rattus norvegicus, UniProt P61169); assay: Inhibition of ^3H-spiperone (spiroperidol) binding to dopamine D-2 receptors in rat corpus striatum in vitro; conditions: 0.5 nM ^3H-spiperone, rat striatum membranes, 37° C., 10 min
Chain of dopamine D-2 receptors in rat corpus striatum (P61169 whole entry): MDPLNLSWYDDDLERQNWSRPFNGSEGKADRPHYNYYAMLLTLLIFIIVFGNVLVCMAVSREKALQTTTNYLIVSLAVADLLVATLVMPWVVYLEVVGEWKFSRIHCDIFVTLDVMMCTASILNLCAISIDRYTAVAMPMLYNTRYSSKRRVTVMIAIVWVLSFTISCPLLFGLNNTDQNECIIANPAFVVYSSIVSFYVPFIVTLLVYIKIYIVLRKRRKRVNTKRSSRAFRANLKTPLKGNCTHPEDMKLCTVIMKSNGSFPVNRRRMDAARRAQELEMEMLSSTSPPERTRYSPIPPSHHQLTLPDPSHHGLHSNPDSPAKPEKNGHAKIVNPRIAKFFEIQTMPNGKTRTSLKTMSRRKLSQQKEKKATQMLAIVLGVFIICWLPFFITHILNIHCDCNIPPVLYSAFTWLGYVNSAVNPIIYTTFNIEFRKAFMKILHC
Experimental: By this method the inhibition by drugs of the binding of ^3 H-spiperone (=^3 H-spiroperidol) (0.5 nM) to dopamine D-2 receptors in membranes from rat corpus striatum is determined in vitro. Method and results in Hyttel & Larsen, J. Neurochem, 44, 1615-1622, 1985).
Male Wistar (Mol:Wistar) rats (125-250 g) are sacrificed and striatal tissue is dissected and weighed. The tissue is homogenized (Ultra Turrax, 10 sec.) in 10 ml of ice-cold 50 mM K-phosphate buffer pH 7.4 (at 25° C.). The homogenate is centrifuged twice at 20,000 g for 10 min. at 4° C. with rehomogenization of the pellet in 10 ml ice-cold buffer. The final pellet is homogenized in 1300 vol (w/v) ice-cold buffer.
Incubation tubes kept on ice in triplicate receive 100 μl of drug solution in water (or water for total binding) and 4000 μl Of tissue suspension (final tissue content corresponds to 3.08 mg original tissue). The binding experimental is initiated by addition of 100 μl of ^3 H-spiperone (final concentration 0.5 nM) and by placing the tubes in a 37° C. water bath. After incubation for 10 min. the samples are filtered under vacuum (0-50 mBar) through Whatman GF/F filters (25 mm). The tubes are rinsed with 5 ml ice-cold buffer which are then poured on the filters. Thereafter, the filters are washed with 2×5 ml of buffer. The filters are placed in counting vials and 4 ml of appropriate scintillation fluid (e.g. Picofluor ™15) are added. After shaking for 1 h and storage 2 hrs in the dark the content of radioactivity is determined by liquid scintillation counting. Specific binding is obtained by subtracting the nonspecific binding in the presence of 10 μM of 6,7-ADTN.
For determination of the inhibition of binding five concentrations of drugs covering 3 decades are used.
The measured cpm are plotted against drug concentration on semilogarithmic paper and the best fitting S-shaped curve is drawn. […] England, specific activity 15-25 Ci/mmol.

[2] = biological target: T1, serotonin S2 (5-HT2) receptors in rat cortex (Rattus norvegicus, UniProt P14842); assay: Inhibition of ^3H-ketanserin binding to serotonin S2 (5-HT2) receptors in rat cortex in vitro; conditions: 0.5 nM ^3H-ketanserin, rat cortex membranes, 37° C., 30 min
T1 construct: Serotonin S2 (5-HT2) receptors in membranes from rat; from tissue; host or cells: cerebral cortex membranes of male Wistar rats (printed 'conical tissue', a misprint for cortical)
T1 sequence (P14842 whole entry): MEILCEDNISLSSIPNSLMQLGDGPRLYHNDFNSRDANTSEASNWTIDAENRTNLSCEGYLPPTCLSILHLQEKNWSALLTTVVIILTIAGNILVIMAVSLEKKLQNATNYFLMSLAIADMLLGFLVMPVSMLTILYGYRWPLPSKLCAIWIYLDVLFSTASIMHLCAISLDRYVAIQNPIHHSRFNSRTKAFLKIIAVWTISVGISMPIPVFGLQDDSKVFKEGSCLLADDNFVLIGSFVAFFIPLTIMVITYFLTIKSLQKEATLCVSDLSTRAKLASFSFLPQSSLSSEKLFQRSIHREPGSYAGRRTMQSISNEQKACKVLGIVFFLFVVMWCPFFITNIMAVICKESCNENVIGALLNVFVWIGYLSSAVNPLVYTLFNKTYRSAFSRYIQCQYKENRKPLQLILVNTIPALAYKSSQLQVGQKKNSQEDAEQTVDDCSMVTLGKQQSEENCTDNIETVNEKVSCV
Experimental: Method in Hyttel, Pharmacology & Toxicology, 61, 126-129, 1987.
Male Wistar (Mol:Wist) rats (125-250 g) are sacrificed and conical tissue is dissected and weighed. The tissue is homogenized (Ultra Turrax, 10 sec.) in 10 ml of ice-cold 50 mM tris buffer pH 7.7 (at 25° C.). The centrifuge glassware used in this step has been rinsed by sonication for 10 min. in ethanol. The homogenate is centrifuged twice at 20,000 g for 10 min. at 4° C. with rehomogenization of the pellet in 10 ml ice-cold buffer. The final pellet is homogenized in 500 vol (w/v)ice-cold buffer.
Incubation tubes kept on ice in triplicate receive 100 μl Of drug solution in water (or water for total binding) and 2000 μl of tissue suspension (final tissue content corresponds to 4 mg original tissue). […] After incubation for 30 min. the samples are filtered under vacuum (0-50 mBar) through Whatman GF/F filters (25 mm). The tubes are rinsed with 5 ml ice-cold buffer which are then poured on the filters. Thereafter, the filters are washed with 2×5 ml of buffer. The filters are placed in counting vials and 4 ml of appropriate scintillation fluid (e.g. Picofluor ™15) are added. After shaking for 1 h and storage 2 hrs in the dark the content of radioactivity is determined by liquid scintillation counting. Specific binding is obtained by subtracting the nonspecific binding in the presence of 1 μM mianserin. For determination of the inhibition of binding five concentrations of drugs covering 3 decades are used.
The IC50 value is determined as the concentration at which the binding is 50% of the total binding in control samples minus the nonspecific binding in the presence of 1 μM mianserin.

[3] = literature (Colpart et al. 1985); cited from earlier work
[4] = literature (Bersani et al. 1990); cited from earlier work
[5] = literature (Klieser, Strauss 1988); cited from earlier work
[6] = literature (Janssen 1988); cited from earlier work
[7] = literature (Ceulemans et al. 1985); cited from earlier work

| SMILES | IC50 [1] | IC50 [2] | further results |
| --- | --- | --- | --- |
| Cc1ccc2c(c1)c(-c1ccc(F)cc1)cn2C1=CCN(CCN2CCNC2=O)CC1 [Compound 6c, 3-(4-Fluorophenyl)-1-[1-[2-(imidazolidin-2-on-1-yl)ethyl]-1,2,3,6-tetrahydropyridin-4-yl]-5-methyl-1H-indole] | 320 nM | 1.4 nM | – |
| Cc1ccc2c(c1)c(-c1ccc(F)cc1)cn2C1=CCN(C)CC1 [Compound 6d, 3-(4-Fluorophenyl)-5-methyl-1-(1-methyl-1,2,3,6-tetrahydropyridin-4-yl)-1H-indole, maleate] | 32 nM | 4.4 nM | – |
| Cc1c(-c2ccccc2)c2cc(Cl)ccc2n1C1=CCN(C)CC1 [Compound 6e, 5-Chloro-2-methyl-1-(1-methyl-1,2,3,6-tetrahydropyridin-4-yl)-3-phenyl-1H-indole, oxalate] | 1000 nM | 9.4 nM | – |
| O=C1NCCN1CCN1CC=C(n2cc(-c3ccc(F)cc3)c3cc(C(F)(F)F)ccc32)CC1 [Compound 6f, 3-(4-Fluorophenyl)-1-[1-[2-(imidazolidin-2-on-1-yl)ethyl]-1,2,3,6-tetrahydropyridin-4-yl]-5-trifluoromethyl-1H-indole] | 440 nM | 3.6 nM | – |
| Cc1ccc2c(c1)c(-c1ccc(F)cc1)c(C)n2C1CCN(CCN2CCNC2=O)CC1 [Compound 7a, 2,5-Dimethyl-3-(4-fluorophenyl)-1-[1-[2-(imidazolidin-2-on-1-yl)ethyl]-4-piperidyl]-1H-indole] | 6900 nM | 3.4 nM | – |
| O=C1NCCN1CCN1CCC(n2cc(-c3ccc(F)cc3)c3cc(C(F)(F)F)ccc32)CC1 [Compound 7b, 3-(4-Fluorophenyl)-1-[1-[2-(imidazolidin-2-on-1-yl)ethyl]-4-piperidyl]-5-trifluoromethyl-1H-indole] | > 1000 nM | 6.2 nM | – |
| Cc1c(-c2ccccc2)c2ccccc2n1C1CCN(CCN2CCNC2=O)CC1 [Compound 7c, 1-[1-[2-(Imidazolidin-2-on-1-yl)ethyl]-4-piperidyl]-2-methyl-3-phenyl-1H-indole] | 5300 nM | 7.8 nM | – |
| Cc1ccc2c(c1)c(-c1ccc(F)cc1)c(C)n2C1CCN(C)CC1 [Compound 9a, 2,5-Dimethyl-3-(4-fluorophenyl)-1-(1-methyl-4-piperidyl)-1H-indole] | 2600 nM | 5.3 nM | – |
| Cc1c(-c2ccccc2)c2cc(Cl)ccc2n1C1CCN(C)CC1 [Compound 9b, 5-Chloro-2-methyl-3-phenyl-1-(1-methyl-4-piperidyl)-1H-indole] | 2900 nM | 17 nM | – |
| Cc1ccc2c(c1)c(-c1ccc(F)cc1)cn2C1CCN(C)CC1 [Compound 11a, 3-(4-Fluorophenyl)-5-methyl-1-(1-methyl-4-piperidyl)-1H-indole, fumarate] | 540 nM | 4.5 nM | – |
| Cc1ccc2c(c1)c(-c1ccc(F)cc1)cn2C1CCN(CCNC(=S)N(C)C)CC1 [Compound 13a, 1-[1-[2-(3,3-Dimethyl-1-thioureido)ethyl]-4-piperidyl]-3-(4-fluorophenyl)-5-methyl-1H-indole] | 250 nM | 3.7 nM | – |
| Cc1ccc2c(c1)c(-c1ccc(F)cc1)cn2C1CCN(CCNC(=O)N(C)C)CC1 [Compound 13b, 1-[1-[2-(3,3-Dimethyl-1-ureido)ethyl]-4-piperidyl]-3-(4-fluorophenyl)-5-methyl-1H-indole] | 260 nM | 2.3 nM | – |
| CNC(=O)N(C)CCN1CCC(n2cc(-c3ccc(F)cc3)c3cc(C)ccc32)CC1 [Compound 15a, 1-[1-[2-(1,3-Dimethyl-1-ureido)ethyl]-4-piperidyl]-3-(4-fluorophenyl)-5-methyl-1H-indole, hydrochloride] | > 1000 nM | 1.8 nM | – |
| Cc1ccc2c(c1)c(-c1ccc(F)cc1)cn2C1CCN(CCO)CC1 [Compound 16a, 3-(4-Fluorophenyl)-1-[1-(2-hydroxyethyl)-4-piperidyl]-5-methyl-1H-indole, oxalate] | 1500 nM | 22 nM | – |
| Cc1ccc2c(c1)C(c1ccc(F)cc1)CN2C1CCN(CCN2CCNC2=O)CC1 (centres unmarked) [Compound 18b, 2,3-Dihydro-3-(4-fluorophenyl)-1-[1-[2-(imidazolidin-2-on-1-yl)ethyl]-4-piperidyl]-5-methyl-1H-indole] | 1100 nM | 4.3 nM | – |
| Cc1ccc2c(c1)c(-c1ccc(F)cc1)cn2N1CCN(C)CC1 [Compound 20a, 3-(4-Fluorophenyl)-5-methyl-1-(1-methylpiperazin-4-yl)-1H-indole] | 3900 nM | 13 nM | – |
| CC(=O)N1CCN(CCN2CCC(n3cc(-c4ccc(F)cc4)c4cc(C)ccc43)CC2)C1=O [Compound 21a, 1-[1-[2-(3-Acetylimidazolidin-2-on-1-yl)ethyl]-4-piperidyl]-3-(4-fluorophenyl)-5-methyl-1H-indole, oxalate] | 890 nM | 18 nM | – |
| Cc1ccc2c(c1)c(-c1ccc(F)cc1)c(Cl)n2C1CCN(CCN2CCN(C(C)C)C2=O)CC1 [Compound 27a, 2-Chloro-3-(4-fluorophenyl)-5-methyl-1-[1-[2-[3-(2-propyl)imidazolidin-2-on-1-yl]ethyl]-4-piperidyl]-1H-indole] | 3200 nM | 10 nM | – |
| Cc1nc2sccn2c(=O)c1CCN1CCC(=C(c2ccc(F)cc2)c2ccc(F)cc2)CC1 [Ritanserin] | – | – | anxiolytic-like effect (in words) [3]: exert effects in an animal test reminiscent of anxiolytic drug activity; relief of neuroleptic-induced parkinsonism (in words) [4]: found to relieve neuroleptic-induced parkinsonism; antidepressant effect and depressive symptoms of schizophrenia (in words) [5]: shown to be an antidepressant and to improve depressive symptoms of schizophrenia; quality of sleep (in words) [6]: shown to improve the quality of sleep |
| Cc1nc2n(c(=O)c1CCN1CCC(C(=O)c3ccc(F)cc3)CC1)CCS2 [setoperone] | – | – | improvement of negative symptoms of schizophrenia (in words) [7]: blockade of 5-HT2 receptors may be related to improvement of negative symptoms of schizophrenia |
